# Data as given in patent US20150216925A1, “AGENT FOR PREVENTING OR AM[…] ENDOTHELIAL MALFUNCTION” (KYOWA HAKKO BIO CO., LTD., priority 2012, published 2015).
# Tested on: normal human umbilical vein endothelial cell (HUVEC)
# Assay: NO production (nitrite in culture supernatant) in HUVEC, HPLC
# Assay type: cell-based
# Settings: 24-hour culture, FIG. 1
# Experimental: A normal human umbilical vein endothelial cell (HUVEC) line available from Clonetics (SanDiego, Calif., USA) was used with EGM-2 Bullet Kit medium containing 2% FBS (Takara Bio). The cells were cultured in at 37° C., in 5% CO2 incubator, and used for experiment after 4 to 6 passages. Citrulline and reduced glutathione were obtained from Kyowa Hakko Bio.
# A cell suspension (0.45 mL) with the adjusted initial cell concentration of 5×10^5 cells/mL was inoculated in a 24-well plate (IWAKI). After 40-hour culture, the media were replaced with those containing citrulline (final concentration 0.3 mM: citrulline group), reduced glutathione (final concentration 1 mM: high-dose glutathione group), and a citrulline and reduced glutathione mixture (citrulline final concentration 0.3 mM; glutathione final concentration 0.3 mM: citrulline+low-dose glutathione group). Media with the sole addition of solvent (PBS) were used as a control group. After 24-hour culture, the cell culture (100 μL) was centrifuged at 12,000 rpm for 10 minutes, and the concentration of nitrite (NO2), which is the stable NO metabolite, in culture supernatant was quantified by HPLC (ENO-20, EICOM).
SMILES,effect on NO production (nitrite NO2 concentration in medium) (reduced glutathione final concentration 1 mM (high-dose)),effect on NO production (nitrite NO2 concentration in medium) (citrulline final concentration 0.3 mM)
"N[C@@H](CCC(=O)N[C@@H](CS)C(=O)NCC(=O)O)C(=O)O [glutathione, γ-L-Glu-L-Cys-Gly]",no effect,–
"NC(=O)NCCC[C@H](N)C(=O)O [citrulline, L-citrulline]",–,no effect
